Assay results from US20030092603A1, “Identification of specific modulators of bone formation” (priority 2001, published 2003).
Peptide text beside a SMILES is read from it. * marks the point of attachment. Cbz = O=C(OCc1ccccc1)*

Key:
[1] = system: Smad1; assay: Smurf1-induced Smad1 degradation in C2C12 cells transfected with Smad1 and Smurf1; assay type: cell-based; conditions: 24 h
Method: Effects of proteasome inhibitors on steady-state levels of Smad1 protein were examined in C2C12 cells. C2C12 cells were plated in 6-well culture plates at density of 2×10^5 cells/well and cultured with DMEM supplemented with 10% FCS for 24 h. The cells were then transfected with Smad1 and Smurf1 expression plasmids. 24 h after transfection, the cells were treated with different proteasome inhibitors at different concentrations and incubated for additional 24 h.

[2] = system: endogenous Smad1; assay: Steady-state levels of endogenous Smad1 in C2C12 cells, Western blot; assay type: cell-based; conditions: 24 hours, vs control
Method: To determine the effects of proteasome inhibitors on the steady-state levels of endogenous Smad1 protein, C2C12 cells were plated in 6-well culture plates (2×10^5 cells/well) and cultured with DMEM supplemented with 10% FCS. 24 h later, proteasome inhibitors lactacystin (10 μM), MG-132 (2.5 and 5 μM), PS-1 (25 and 50 nM) were added into C2C12 cells. The cells were cultured with the proteasome inhibitors for 24 hours and then the cell lysates were extracted. The steady-state levels of endogenous Smad1 were analyzed by Western blot using Smad1 antibody (Santa Cruz).

[3] = system: murine BMP-2 promoter (−2712/+165); assay: BMP-2 promoter-luciferase assay in stably transfected 2T3 cells; assay type: cell-based
Method: (§1) 2T3 murine osteoblast precursor cells and MG-63 human osteoblastic cells were cultured with α minimal essential medium (αMEM) supplemented with 10% fetal calf serum (FCS).
The cells were plated in 96-well culture plates and cultured for 24 h. The cells were then treated with different proteasome inhibitors or other compounds for additional 24 h. The cell lysates were extracted and luciferase activities were measured by a luciferase assay kit (Promega, Madison, Wis.) using a Luminometer.

[4] = system: BMP-2 mRNA; assay: BMP-2 mRNA expression, Northern blot, MG-63 cells; assay type: cell-based; conditions: cultured human MG-63 osteoblastic cells
Method: as §1
(§2) MG-63 cells were plated in T-150 flasks at density of 2×10^6 cells per flask for RNA extraction. Total RNA was extracted from MG-63 cells using RNAzol B method (Tel-test Inc., Houston, Tex.). Enrichment of polyadenylated RNA was obtained using Stratagene oligo(dT) cellulose columns (Stratagene, San Diego, Calif.). 5 μg of poly (A^+) RNA was denatured in 2.2 M formaldehyde and 50% fornamide and run on an 1% agarose gel containing 2.2 M formaldehyde. The gels were transferred to a Nytran filter (Schleicher and Schuell, Keene, N.H.) by capillary blotting with 20× SSC (1× SSC=150 mM NaCl, 15 mM Na Citrate, pH 7.0). The RNA was then cross-linked to the filter by UV irradiation (Stratalink, Stratagene, San Diego, Calif.). Prehybridization was carried out at 56° C. in 5× SSC containing 50% formamide and 150 μg/ml of denatured salmon sperm DNA. After 1-2 h prehybridization, the DNA probes were added to the hybridization solution at a concentration of 5×10^5 cpm/ml. Hybridization was carried out for 15 h at 56° C. […] The filters were dried at room temperature, exposed at −70° C. overnight and then quantitated in cpm using an AMBIS Image Acquisition and Analysis System (AMBIS, San Diego, Calif.).

[5] = system: BMP-4 mRNA; assay: BMP-4 mRNA expression, MG-63 cells; assay type: cell-based; conditions: cultured human MG-63 osteoblastic cells
Method: as §1, §2

[6] = system: BMP-2 protein; assay: BMP-2 protein production by ELISA, MG-63 cell lysates; assay type: cell-based; conditions: cultured human MG-63 osteoblastic cells, 24 h
Method: MG-63 cells were plated in 12-well culture plates at the density of 2.5×10^5 cells/well and cultured with αMEM supplemented with 10% FCS for 24 h. The cells were treated with the proteasome inhibitors epoxomicin and PSI for 24 h. After incubation, the cell lysates were extracted with 150 μl lysis buffer (50 mM TrisHCl pH 8.0, 150 mM NaCl, 1% NP40) with protease inhibitors. The lysates were used to measure the BMP-2 protein production by ELISA.
For protein production, 96-well Dynatech white plates were coated with mouse anti-hBMP-2 monoclonal antibody (raised against rhBMP-2) at 1 μg/ml in PBS (100 μl/well) and incubated overnight at 4° C. The following procedures were performed at room temperature. The plates were washed 3 times with 300 μl of PBS-T wash buffer (PBS and 0.05% Tween) and then blocked with 300 μl 0.2% I-Block solution (0.2% I-Block in PBS-T, Applied Biosystems) for 2 h. 100 μl cell lysates were then added and incubated with coated antibody for 2 h. […] After 3 time washing with wash buffer and 3 time washing with assay buffer, the plates were incubated with 100 μl Tropix enzyme substrate (Applied Biosystems) in dark for 10 min and then read light emission with a Luminometer. rhBMP-2 (R&D) was used to generate the standard curve.

[7] = system: neonatal murine calvarial bones; assay: Organ culture of neonatal murine calvarial bones, bone formation; assay type: cell-based, ICR Swiss mice; conditions: for effect on osteoblast differentiation and bone formation after transfection of trGli3: calvariae transfected with trGli3, epoxomicin 20 nM, 3 days, histology
Method: Organ cultures of neonatal murine calvarial bones were used as described by Traianedes, K., et al., Endocrinology (1998) 139:3178-3184. Bones were removed from the calvaria of 4-5 day old ICR Swiss mice and cultured in BGJ medium with 0.1% BSA for 72 hours together with test compounds. Mouse noggin/FC chimera was purchased from R&D Systems, Stillwater, Minn., and added at 2 μg/ml.
Neonatal murine calvariae were transfected with either empty vector or truncated Gli3 (trGli3) using lipofectamine plus reagents for the first 24 hours and then treated with epoxomicin (20 nM) for the remaining 3 days of the assay according to Traianedes, et al., 1998 (supra).

[8] = system: Gli3; assay: Gli3 processing in 293 cells transfected with Flag-Gli3, Western blot; assay type: cell-based, human; conditions: for band of short form Gli3^85: FIG. 2a
Method: (§3) Full-length human Gli3 expression plasmid (pact-Flag-Gli3) was kindly provided by Dr. Shunsuke Ishii (Dai, P., et al., J. Biol. Chem. (1999) 274:8143-8152). The molecular weights for expressed Gli3 proteins by transfection of full-length Gli3 cDNA is about 190 kd (Gli3^190) and the processed form of Gli3 is about 85 kd (Gli3^85).
293 cells were plated in 6-well culture plates and cultured with Dulbecco's modified Eagle's medium (DMEM, Sigma). 24 hours after plating, the cells were transiently transfected with Flag-Gli3 cDNA (1 μg/well) and treated with 3-isobutyl-1-methylxanthine (IBMX, 200 μM) in the presence or absence of 1, 10 and 100 nM epoxomicin or PS-1. The steady-state protein levels of Gli3 precursor protein (Gli3^190) or processed form of Gli3 (Gli3^85) were detected by Western blot using anti-Flag antibody.

[9] = system: Gli3 precursor protein (Gli3^190); assay: Gli3 precursor (Gli3^190) degradation in C3H10T1/2 cells, Western blot; assay type: cell-based, mouse; conditions: IBMX 200 μM
Method: as §3
C3H10T1/2 multipotent progenitor cells were cultured with RPMI […] medium. The medium was purchased from Sigma (St. Louis, Mo.) and supplemented with 10% fetal calf serum (FCS). C3H10T1/2 cells were plated in 6-well culture plates at the density of 2×10^5 cells/well and transfected with Flag-Gli3 (2 μg/well) and treated with IBMX (200 μM) in the presence or absence of 10 and 20 nM of epoxomicin. Gli3^190 protein expression was detected by Western blot using anti-Flag antibody.

[10] = noggin 2 μg/ml, 72 hours culture

CC(C)C[C@@H](C=O)NC(=O)[C@H](CC(C)C)NC(=O)[C@H](CC(C)C)NC(=O)OCc1ccccc1 [MG-132] (Cbz-Leu-Leu-Leu-aldehyde)
Smurf1-induced Smad1 degradation ([1]; C2C12 cells, 5 μM): partially or completely reversed
increase of endogenous Smad1 protein level ([2]; 5 μM): 6.5 fold

CC[C@H](C)[C@H](NC(=O)[C@H]([C@@H](C)CC)N(C)C(C)=O)C(=O)N[C@H](C(=O)N[C@@H](CC(C)C)C(=O)[C@@]1(C)CO1)[C@@H](C)O [epoxomicin]
potency as stimulators of BMP-2 expression compared with the statins [3]: considerably more potent
luciferase activity (BMP-2 promoter) ([3]; treated 24 h): increased
BMP-2 mRNA expression [4]: increased
expression of BMP-4 mRNA [5]: no effect
BMP-2 protein expression [6]: increased
bone formation in calvarial cultures ([7]; 72 hours culture): bone stimulating effects
effect on osteoblast differentiation and bone formation after transfection of trGli3 [7]: impaired markedly
band of short form Gli3^85 ([8]; 1 nM epoxomicin): substantially reduced
band of short form Gli3^85 ([8]; 10 nM epoxomicin): abolished
Gli3 processing to its processed shorter form ([8]; IBMX 200 μM): impaired
degradation of Gli3 precursor protein (Gli3^190) [9]: prevent the degradation
Smurf1-induced Smad1 degradation ([1]; C2C12 cells, 10, 20 and 40 nM, FIG. 5c): partially or completely reversed

CC(=O)N[C@@H](CSC(=O)[C@]1([C@@H](O)C(C)C)NC(=O)[C@H](C)[C@@H]1O)C(=O)O [lactacystin]
Smurf1-induced Smad1 degradation ([1]; C2C12 cells, 10 μM): partially or completely reversed
increase of endogenous Smad1 protein level ([2]; 10 μM): 3.7 fold

aFGF: acidic fibroblast growth factor, unrelated anabolic agent
bone formation in calvarial cultures ([7]; 72 hours culture): bone formation stimulated
effect on osteoblast differentiation and bone formation after transfection of trGli3 [7]: no effect

noggin
effect of noggin on bone formation stimulated by aFGF [7, 10]: no effect
effect of noggin on bone stimulating effect of BMP-2 [7, 10]: inhibited
effect of noggin on bone stimulating effect of PS-1 [7, 10]: inhibited
effect of noggin on bone stimulating effect of epoxomicin [7, 10]: inhibited
